Assay results taken from patent publication US11845724B2, “USP30 inhibitors and uses thereof” (Vincere Biosciences, Inc., priority 2019, dated 2023).
Like-named read-outs stand apart in the source and are kept apart here.

Legend:
USP30 = USP30 (Homo sapiens (Human), UniProt Q70CQ3); assay: Dundee MALDI-TOF mass spectrometry assay (IC50); assay type: biochemical; settings: USP30 25 ng/μl, K48-linked diubiquitin 5.6 μM, avg, read-out: Dundee IC50 μM (avg in vitro MS assay)
Procedure: Compounds were tested in a MALDI-TOF assay based on the paper by Ritorto et al. (Ritorto et al. Screening of DUB activity and specificity by MALDI-TOF mass spectrometry. Nat. […] USP30 (25 ng/μl) tested against K48-linked diubiquitin (5.6 μM). USP30 was diluted in a buffer containing 40 mM Tris, 0.01% BSA, 1 mM DTT and K48 in 40 mM Tris, 0.01% BSA. The compounds were pre-incubated with the USP30 for 5 mins at room temp before the K48 dimer addition. The assay mixture was then incubated for 45 mins at room temp. The assay was stopped by the addition of TFA to a final concentration of 2% (v/v). […] Then 250 nl of these solutions were spotted onto an MTP AnchorChip 1,536 TF and this is analysed on the Bruker rapifleX MALDI-TOF.

[1] = biological target: recombinant USP30 (amino acids 57-517 of the human sequence) (Homo sapiens (Human), UniProt Q70CQ3); assay: In vitro USP30 biochemical assay (Ubiquitin-Rhodamine)
Sequence of recombinant USP30 (amino acids 57-517 of the human sequence) (Q70CQ3 57-517): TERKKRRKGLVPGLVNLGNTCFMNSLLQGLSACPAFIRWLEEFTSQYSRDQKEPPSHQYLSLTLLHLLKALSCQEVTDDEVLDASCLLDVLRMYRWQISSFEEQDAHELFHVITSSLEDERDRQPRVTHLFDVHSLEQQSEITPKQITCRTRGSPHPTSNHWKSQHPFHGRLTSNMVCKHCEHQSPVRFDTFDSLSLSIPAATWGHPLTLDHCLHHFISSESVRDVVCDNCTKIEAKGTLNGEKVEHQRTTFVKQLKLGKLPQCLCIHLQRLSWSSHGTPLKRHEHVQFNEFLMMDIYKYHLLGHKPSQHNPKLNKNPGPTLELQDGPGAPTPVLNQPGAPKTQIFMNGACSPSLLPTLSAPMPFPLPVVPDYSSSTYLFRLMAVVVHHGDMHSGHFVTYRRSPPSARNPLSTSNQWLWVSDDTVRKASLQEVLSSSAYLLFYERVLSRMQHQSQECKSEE
Procedure: In vitro biochemical assay to establish the potency of compounds for USP30 inhibition: a 384-well plate assay using a fluorophore tagged substrate of USP30 was used for in vitro screening of compounds. Each compound was tested at 10 different concentrations (0.5 to 10,000 nM) in duplicate wells. Compounds were pre-incubated at 25° C. for 30 min in an assay buffer consisting of 20 mM Tris/HCl, pH8.0, 1 mM GSH, 0.01% Triton X-100, 0.03% BGG and 1.5 nM recombinant USP30 (amino acids 57-517 of the human sequence with a C-terminal 6-His tag). Following the pre-incubation, Ubiquitin-Rhodamine substrate dissolved in the assay buffer was added at the final concentration of 25 nM to each well and plates were incubated at 25° C. for an additional 75 minutes. The reaction was stopped by adding 10 mM citric acid and fluorescence was read using excitation wavelength 485 nm, emission of 535 nm. Data were analyzed using Graph Pad Prism software with a four-parameter (floating slope) fit to log concentration data to determine IC50s.

[2] = read-out: USP30 IC50 μM (avg), Ubiquitin-Rhodamine substrate 25 nM, 1.5 nM recombinant USP30
[3] = USP30 IC50 μM (avg), Ubiquitin-Rhodamine substrate 25 nM, 1.5 nM recombinant USP30

Sequence of USP30 (Q70CQ3 whole entry): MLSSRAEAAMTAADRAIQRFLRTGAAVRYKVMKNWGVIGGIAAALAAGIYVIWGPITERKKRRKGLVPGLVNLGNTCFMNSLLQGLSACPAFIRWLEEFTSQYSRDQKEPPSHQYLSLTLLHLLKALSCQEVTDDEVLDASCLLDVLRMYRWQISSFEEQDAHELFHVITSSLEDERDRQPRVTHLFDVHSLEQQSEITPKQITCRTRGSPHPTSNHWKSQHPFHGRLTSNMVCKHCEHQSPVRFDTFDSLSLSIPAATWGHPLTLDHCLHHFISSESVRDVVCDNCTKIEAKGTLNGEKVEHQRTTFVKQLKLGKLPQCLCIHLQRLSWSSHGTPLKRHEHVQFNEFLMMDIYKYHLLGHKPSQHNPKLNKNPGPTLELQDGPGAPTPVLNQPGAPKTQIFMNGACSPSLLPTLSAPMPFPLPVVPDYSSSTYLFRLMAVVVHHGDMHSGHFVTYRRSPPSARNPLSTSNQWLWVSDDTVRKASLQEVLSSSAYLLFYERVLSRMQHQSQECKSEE

Structure (SMILES) | IC50 (USP30) [µM] | IC50 [1, 2] [µM] | IC50 [1, 3] [µM]
O=C(NC1(C(=O)Nc2ccc(S(=O)(=O)NC34CC(C3)C4)cc2)Cc2ccccc2C1)c1ccc(F)cc1 [Compound I-102, N-(4-(N-bicyclo[1.1.1]pentan-1-ylsulfamoyl)phenyl)-2-(4-fluorobenzamido)-2,3-dihydro-1H-indene-2-carboxamide] | 0.05 to 1 | > 10 | 
CC(C)(C)NS(=O)(=O)c1ccc(NC(=O)[C@H](Cc2ccccc2)N2CCc3ccccc3C2=O)cc1 [Compound I-84, (S)-N-(4-(N-tert-butylsulfamoyl)phenyl)-2-(1-oxo-3,4-dihydroisoquinolin-2(1H)-yl)-3-phenylpropanamide] | 0.05 to 1 |  | 0.05 to 1
O=C(N[C@@H](Cc1ccccc1)C(=O)Nc1ccc(S(=O)(=O)NC2CCCC2)cc1)c1ccccn1 [Compound I-77, (S)-N-(1-(4-(N-cyclopentylsulfamoyl)phenylamino)-1-oxo-3-phenylpropan-2-yl)picolinamide] | 0.05 to 1 |  | 0.05 to 1
O=C(N[C@@H](Cc1ccccc1)C(=O)Nc1ccc(S(=O)(=O)NC2COC2)cc1)c1cccc(F)c1 [Compound I-94, (S)-3-fluoro-N-(1-(4-(N-oxetan-3-ylsulfamoyl)phenylamino)-1-oxo-3-phenylpropan-2-yl)benzamide] | 0.05 to 1 |  | 0.05 to 1
O=C(N[C@@H](Cc1ccccc1)C(=O)Nc1ccc(S(=O)(=O)NC2COC2)nc1)c1ccc(F)cc1 [Compound I-106, (S)-4-fluoro-N-(1-(6-(N-oxetan-3-ylsulfamoyl)pyridin-3-ylamino)-1-oxo-3-phenylpropan-2-yl)benzamide] | 0.05 to 1 |  | 0.05 to 1
O=C(N[C@H](Cc1ccccc1)C(=O)Nc1ccc(S(=O)(=O)NC23CC(C2)C3)cc1)c1ccc(F)cc1 [Compound I-99, (R)-N-(1-(4-(N-bicyclo[1.1.1]pentan-1-ylsulfamoyl)phenylamino)-1-oxo-3-phenylpropan-2-yl)-4-fluorobenzamide] | > 10 | > 10 | 
O=C(N[C@@H](Cc1ccccc1)C(=O)Nc1ccc(S(=O)(=O)NC23CC(C2)C3)cc1)c1ccc(F)cn1 [Compound I-73, (S)-N-(1-(4-(N-bicyclo[1.1.1]pentan-1-ylsulfamoyl)phenylamino)-1-oxo-3-phenylpropan-2-yl)-5-fluoropicolinamide] | < 0.05 |  | 0.05 to 1
CC(C)(C)C[S+]([O-])c1ccc(NC(=O)[C@H](Cc2ccccc2)NC(=O)c2ccc(F)cc2)cc1 (stereo partly drawn) [Compound I-4, 4-fluoro-N-((2S)-1-(4-(neopentylsulfinyl)phenylamino)-1-oxo-3-phenylpropan-2-yl)benzamide] | 0.05 to 1 |  | 1 to 10
O=C(N[C@@H](Cc1ccccc1)C(=O)Nc1ccc(S(=O)(=O)NC2CCC2)cc1)c1ccc(F)cn1 [Compound I-75, (S)-N-(1-(4-(N-cyclobutylsulfamoyl)phenylamino)-1-oxo-3-phenylpropan-2-yl)-5-fluoropicolinamide] | 0.05 to 1 |  | 0.05 to 1
CC(C)(C)NS(=O)(=O)c1ccc(NC(=O)[C@H](Cc2ccccc2)NC(=O)c2cccc(F)c2)cc1 [Compound I-88, (S)-N-(1-(4-(N-tert-butylsulfamoyl)phenylamino)-1-oxo-3-phenylpropan-2-yl)-3-fluorobenzamide] | < 0.05 |  | 0.05 to 1
COCCNS(=O)(=O)c1ccc(NC(=O)[C@H](Cc2ccccc2)NC(=O)c2ccc(F)cc2)cn1 [Compound I-108, (S)-4-fluoro-N-(1-(6-(N-(2-methoxyethyl)sulfamoyl)pyridin-3-ylamino)-1-oxo-3-phenylpropan-2-yl)benzamide] | 0.05 to 1 |  | 0.05 to 1
O=C(NC1(C(=O)Nc2ccc(S(=O)(=O)NC3COC3)cc2)Cc2ccccc2C1)c1ccc(F)cc1 [Compound I-101, 2-(4-fluorobenzamido)-N-(4-(N-oxetan-3-ylsulfamoyl)phenyl)-2,3-dihydro-1H-indene-2-carboxamide] | > 10 | > 10 | 
O=C(N[C@@H](Cc1ccccc1)C(=O)Nc1ccc(S(=O)(=O)NC2CCCC2)cc1)c1ccc(F)cn1 [Compound I-74, (S)-N-(1-(4-(N-cyclopentylsulfamoyl)phenylamino)-1-oxo-3-phenylpropan-2-yl)-5-fluoropicolinamide] | 0.05 to 1 |  | 0.05 to 1
CC(C)(C)NS(=O)(=O)c1ccc(NC(=O)[C@H](Cc2c[nH]c3ccccc23)NC(=O)c2ccc(F)cc2)cc1 [Compound I-1, (S)-N-(1-(4-(N-tert-butylsulfamoyl)phenylamino)-3-(1H-indol-3-yl)-1-oxopropan-2-yl)-4-fluorobenzamide] | 0.05 to 1 |  | 
CC(C)(C)CS(=O)(=O)c1ccc(NC(=O)[C@H](Cc2ccccc2)NC(=O)c2ccc(F)cc2)cc1 [Compound I-2, (S)-4-fluoro-N-(1-(4-(2,2-Dimethyl-propylsulfonyl)phenylamino)-1-oxo-3-phenylpropan-2-yl)benzamide] | 0.05 to 1 |  | 
O=C(N[C@@H](Cc1ccccc1)C(=O)Nc1ccc(S(=O)(=O)Nc2ccccc2)cc1)c1ccc(F)cc1 [Compound I-32, (S)-4-fluoro-N-(1-oxo-3-phenyl-1-(4-(N-phenylsulfamoyl)phenylamino)propan-2-yl)benzamide] | 0.05 to 1 |  | 
CCC(C)(C)NS(=O)(=O)c1ccc(NC(=O)[C@H](Cc2ccccc2)NC(=O)c2ccc(F)cc2)cc1 [Compound I-24, (S)-4-fluoro-N-(1-oxo-1-(4-(N-tert-pentylsulfamoyl)phenylamino)-3-phenylpropan-2-yl)benzamide] | < 0.05 |  | 
O=C(N[C@@H](Cc1ccccc1)C(=O)Nc1ccc(S(=O)(=O)NC2CCCCC2)cc1)c1ccc(F)cc1 [Compound I-31, (S)-N-(1-(4-(N-cyclohexylsulfamoyl)phenylamino)-1-oxo-3-phenylpropan-2-yl)-4-fluorobenzamide] | 0.05 to 1 |  | 

Results, then the compound that gave them:

IC50 (USP30) [µM] | IC50 [1, 2] [µM] | IC50 [1, 3] [µM] | Structure (SMILES)
0.05 to 1 |  | 0.05 to 1 | COCCNS(=O)(=O)c1ccc(NC(=O)[C@H](Cc2ccccc2)NC(=O)c2ccc(F)cc2)nc1 [Compound I-120, (S)-4-fluoro-N-(1-(5-(N-(2-methoxyethyl)sulfamoyl)pyridin-2-ylamino)-1-oxo-3-phenylpropan-2-yl)benzamide]
0.05 to 1 |  | 0.05 to 1 | O=C(N[C@@H](Cc1ccccc1)C(=O)Nc1ccc(S(=O)(=O)NCCO)cn1)c1ccc(F)cc1 [Compound I-121, (S)-4-fluoro-N-(1-(5-(N-(2-hydroxyethyl)sulfamoyl)pyridin-2-ylamino)-1-oxo-3-phenylpropan-2-yl)benzamide]
0.05 to 1 |  | 0.05 to 1 | O=C(N[C@@H](Cc1ccccc1)C(=O)Nc1ccc(S(=O)(=O)NCCCN2CCOCC2)cn1)c1ccc(F)cc1 [Compound I-123, (S)-4-fluoro-N-(1-(5-(N-(3-morpholinopropyl)sulfamoyl)pyridin-2-ylamino)-1-oxo-3-phenylpropan-2-yl)benzamide]
0.05 to 1 |  | 0.05 to 1 | O=C(N[C@@H](Cc1ccccn1)C(=O)Nc1ccc(S(=O)(=O)NC2COC2)cc1)c1ccc(F)cc1 [Compound I-140, (S)-4-fluoro-N-(1-(4-(N-oxetan-3-ylsulfamoyl)phenylamino)-1-oxo-3-(pyridin-2-yl)propan-2-yl)benzamide]
< 0.05 |  | 0.05 to 1 | CCNS(=O)(=O)c1ccc(NC(=O)[C@H](Cc2ccccc2)NC(=O)c2ccc(F)cc2)cc1F [Compound I-155, (S)-N-(1-(4-(N-ethylsulfamoyl)-3-fluorophenylamino)-1-oxo-3-phenylpropan-2-yl)-4-fluorobenzamide]
0.05 to 1 |  | 0.05 to 1 | O=C(N[C@@H](Cc1ccccc1)C(=O)Nc1ccc(S(=O)(=O)NCCN2CCOCC2)nc1)c1ccc(F)cc1 [Compound I-111, (S)-4-fluoro-N-(1-(6-(N-(2-morpholinoethyl)sulfamoyl)pyridin-3-ylamino)-1-oxo-3-phenylpropan-2-yl)benzamide]
< 0.05 |  | 0.05 to 1 | COc1cc(NC(=O)[C@H](Cc2ccccc2)NC(=O)c2ccc(F)cc2)ccc1S(=O)(=O)NC1CCOCC1 [Compound I-150, (S)-4-fluoro-N-(1-(3-methoxy-4-(N-(tetrahydro-2H-pyran-4-yl)sulfamoyl)phenylamino)-1-oxo-3-phenylpropan-2-yl)benzamide]
0.05 to 1 |  | 0.05 to 1 | O=C(N[C@@H](Cc1ccccc1)C(=O)Nc1ccc(S(=O)(=O)NCCN2CCOCC2)cn1)c1ccc(F)cc1 [Compound I-122, (S)-4-fluoro-N-(1-(5-(N-(2-morpholinoethyl)sulfamoyl)pyridin-2-ylamino)-1-oxo-3-phenylpropan-2-yl)benzamide]
0.05 to 1 |  | 0.05 to 1 | CCNS(=O)(=O)c1ccc(NC(=O)[C@H](Cc2ccccc2)NC(=O)c2ccc(F)cc2)cc1OC [Compound I-146, (S)-N-(1-(4-(N-ethylsulfamoyl)-3-methoxyphenylamino)-1-oxo-3-phenylpropan-2-yl)-4-fluorobenzamide]
< 0.05 | < 0.05 |  | CC(C)(C)NS(=O)(=O)c1ccc(NC(=O)[C@H](Cc2ccccc2)NC(=O)c2ccc(F)cc2)c(F)c1 [Compound I-158, (S)-N-(1-(4-(N-tert-butylsulfamoyl)-2-fluorophenylamino)-1-oxo-3-phenylpropan-2-yl)-4-fluorobenzamide]
